Experiments:
Test in all cases: KinaseProfiler off-target kinase profiling
Assay type in all cases: biochemical
Conditions in all cases: 10 μM, ATP near Km
[1] = target: AURKA (Homo sapiens (Human), UniProt O14965)
In short: (§1)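 Single-point profiling, 10 μM, duplicates, ATP ~Km; output POC (mean of 2).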

[2] = target: BTK (Homo sapiens (Human), UniProt Q06187)
In short: as §1

[3] = target: CAMK2d (Homo sapiens (Human), UniProt Q13557)
In short: as §1

[4] = target: CDK5/p25 (Homo sapiens (Human), UniProt Q00535)
Sequence of CDK5/p25 (Q00535 whole entry): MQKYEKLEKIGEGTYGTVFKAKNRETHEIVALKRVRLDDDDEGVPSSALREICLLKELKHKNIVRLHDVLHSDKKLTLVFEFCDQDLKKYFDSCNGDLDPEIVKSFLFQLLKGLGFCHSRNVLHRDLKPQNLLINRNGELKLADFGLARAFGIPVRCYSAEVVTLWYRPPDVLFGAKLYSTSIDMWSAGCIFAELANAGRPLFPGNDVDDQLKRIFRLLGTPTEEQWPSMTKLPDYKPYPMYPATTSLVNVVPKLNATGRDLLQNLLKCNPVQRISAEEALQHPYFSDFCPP
Sequence of CDK5/p25 (Q15078 99-307 partner): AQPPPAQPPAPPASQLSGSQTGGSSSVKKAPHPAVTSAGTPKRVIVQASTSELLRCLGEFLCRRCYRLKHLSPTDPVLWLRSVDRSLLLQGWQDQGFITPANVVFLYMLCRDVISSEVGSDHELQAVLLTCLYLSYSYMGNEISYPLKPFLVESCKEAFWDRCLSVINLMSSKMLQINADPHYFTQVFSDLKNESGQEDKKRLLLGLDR
In short: as §1

[5] = target: CDK7/cyclinH/MAT1 (Homo sapiens (Human), UniProt P50613)
In short: as §1

[6] = target: CDK9/cyclinT1 (Homo sapiens (Human), UniProt P50750)
In short: as §1

[7] = target: CHK1 (Homo sapiens (Human), UniProt O14757)
In short: as §1

[8] = target: DCAMKL2 (Homo sapiens (Human), UniProt Q8N568)
In short: as §1

[9] = target: EphB3 (Homo sapiens (Human), UniProt P54753)
In short: as §1

[10] = target: FGFR2 (Homo sapiens (Human), UniProt P21802)
In short: as §1

[11] = target: FGFR4 (Homo sapiens (Human), UniProt P22455)
In short: as §1

[12] = target: Fer (Homo sapiens (Human), UniProt P16591)
In short: as §1

[13] = target: Fgr (Homo sapiens (Human), UniProt P09769)
In short: as §1

[14] = target: GRK5 (Homo sapiens (Human), UniProt P34947)
In short: as §1

[15] = target: GSK3alpha (Homo sapiens (Human), UniProt P49840)
In short: as §1

[16] = target: Haspin (Homo sapiens (Human), UniProt Q8TF76)
Sequence of Haspin (Q8TF76 whole entry): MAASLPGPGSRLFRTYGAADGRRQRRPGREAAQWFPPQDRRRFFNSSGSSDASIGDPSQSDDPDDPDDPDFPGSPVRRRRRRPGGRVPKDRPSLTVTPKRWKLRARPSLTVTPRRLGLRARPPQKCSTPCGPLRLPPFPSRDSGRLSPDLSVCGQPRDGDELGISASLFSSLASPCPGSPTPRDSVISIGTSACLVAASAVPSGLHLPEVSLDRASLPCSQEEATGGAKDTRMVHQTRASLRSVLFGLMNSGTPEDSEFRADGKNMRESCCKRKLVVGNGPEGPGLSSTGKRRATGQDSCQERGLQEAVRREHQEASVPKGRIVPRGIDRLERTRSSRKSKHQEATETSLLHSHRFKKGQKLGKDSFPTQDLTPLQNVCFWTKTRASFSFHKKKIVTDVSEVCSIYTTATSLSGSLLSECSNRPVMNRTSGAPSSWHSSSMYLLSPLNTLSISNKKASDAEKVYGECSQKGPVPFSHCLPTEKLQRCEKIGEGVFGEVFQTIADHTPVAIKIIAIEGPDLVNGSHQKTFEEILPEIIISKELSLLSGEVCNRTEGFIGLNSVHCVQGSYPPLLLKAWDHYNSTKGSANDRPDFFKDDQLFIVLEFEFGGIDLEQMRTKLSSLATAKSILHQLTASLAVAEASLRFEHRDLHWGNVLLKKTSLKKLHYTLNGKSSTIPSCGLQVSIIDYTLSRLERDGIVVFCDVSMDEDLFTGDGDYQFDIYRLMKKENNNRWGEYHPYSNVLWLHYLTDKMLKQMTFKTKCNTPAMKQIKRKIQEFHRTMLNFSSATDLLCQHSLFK
In short: as §1

[17] = target: IGF-1R (Homo sapiens (Human), UniProt P08069)
In short: as §1

[18] = target: IKKbeta (Homo sapiens (Human), UniProt O14920)
In short: as §1

[19] = target: KIT (Homo sapiens (Human), UniProt P10721)
In short: as §1

[20] = target: MELK (Homo sapiens (Human), UniProt Q14680)
In short: as §1

[21] = target: MRCKbeta (Homo sapiens (Human), UniProt Q9Y5S2)
In short: as §1

[22] = target: MST3 (Homo sapiens (Human), UniProt Q9Y6E0)
In short: as §1

[23] = target: NLK (Homo sapiens (Human), UniProt Q9UBE8)
In short: as §1

[24] = target: PAK5 (Homo sapiens (Human), UniProt Q9P286)
In short: as §1

[25] = target: PAK6 (Homo sapiens (Human), UniProt Q9NQU5)
In short: as §1

[26] = target: PASK (Homo sapiens (Human), UniProt Q96RG2)
In short: as §1

[27] = target: PDGFRalpha (Homo sapiens (Human), UniProt P16234)
In short: as §1

[28] = target: PKCalpha (Homo sapiens (Human), UniProt P17252)
In short: as §1

[29] = target: PKCepsilon (Homo sapiens (Human), UniProt Q02156)
In short: as §1

[30] = target: PKD2 (Homo sapiens (Human), UniProt Q9BZL6)
In short: as §1

[31] = target: PTK6 (Homo sapiens (Human), UniProt Q13882)
Sequence of PTK6 (Q13882 whole entry): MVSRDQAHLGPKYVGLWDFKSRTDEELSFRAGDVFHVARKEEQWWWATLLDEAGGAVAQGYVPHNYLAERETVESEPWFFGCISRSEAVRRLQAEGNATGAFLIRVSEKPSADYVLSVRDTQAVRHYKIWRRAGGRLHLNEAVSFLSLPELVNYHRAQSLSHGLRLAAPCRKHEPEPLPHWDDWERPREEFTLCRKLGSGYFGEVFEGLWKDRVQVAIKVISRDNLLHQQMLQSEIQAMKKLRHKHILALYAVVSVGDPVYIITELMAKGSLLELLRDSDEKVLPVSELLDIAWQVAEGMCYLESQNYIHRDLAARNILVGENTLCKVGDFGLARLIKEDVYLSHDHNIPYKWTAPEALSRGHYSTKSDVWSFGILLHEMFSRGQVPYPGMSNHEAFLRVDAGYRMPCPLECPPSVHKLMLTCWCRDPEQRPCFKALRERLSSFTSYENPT
In short: as §1

[32] = target: PhKgamma2 (Homo sapiens (Human), UniProt P15735)
Sequence of PhKgamma2 (P15735 whole entry): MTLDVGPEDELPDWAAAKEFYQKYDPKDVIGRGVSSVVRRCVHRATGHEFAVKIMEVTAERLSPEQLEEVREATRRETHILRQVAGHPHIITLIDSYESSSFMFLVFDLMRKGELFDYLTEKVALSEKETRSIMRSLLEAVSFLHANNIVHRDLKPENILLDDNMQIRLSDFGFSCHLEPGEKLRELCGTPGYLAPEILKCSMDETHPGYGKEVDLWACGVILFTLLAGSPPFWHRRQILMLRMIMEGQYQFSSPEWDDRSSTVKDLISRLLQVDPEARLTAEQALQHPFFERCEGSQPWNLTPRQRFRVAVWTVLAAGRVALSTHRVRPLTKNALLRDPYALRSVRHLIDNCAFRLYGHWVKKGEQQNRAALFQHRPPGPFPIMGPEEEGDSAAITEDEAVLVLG
In short: as §1

[33] = target: PrKX (Homo sapiens (Human), UniProt P51817)
In short: as §1

[34] = target: Ret (Homo sapiens (Human), UniProt P07949)
In short: as §1

[35] = target: Rsk1 (Homo sapiens (Human), UniProt Q15418)
In short: as §1

[36] = target: SGK1 (Homo sapiens (Human), UniProt O00141)
Sequence of SGK1 (O00141 whole entry): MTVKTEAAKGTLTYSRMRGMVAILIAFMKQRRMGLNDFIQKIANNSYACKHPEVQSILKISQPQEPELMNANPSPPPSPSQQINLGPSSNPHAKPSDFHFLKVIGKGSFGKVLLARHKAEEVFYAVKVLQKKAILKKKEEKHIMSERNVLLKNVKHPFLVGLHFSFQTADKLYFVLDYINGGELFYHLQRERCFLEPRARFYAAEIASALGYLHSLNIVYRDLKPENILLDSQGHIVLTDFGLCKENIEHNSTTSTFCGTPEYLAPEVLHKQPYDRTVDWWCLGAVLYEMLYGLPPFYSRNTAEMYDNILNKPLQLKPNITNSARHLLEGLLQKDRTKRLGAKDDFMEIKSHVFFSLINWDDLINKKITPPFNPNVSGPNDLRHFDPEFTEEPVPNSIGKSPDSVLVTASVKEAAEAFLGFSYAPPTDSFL
In short: as §1

[37] = target: TAO1 (Homo sapiens (Human), UniProt Q7L7X3)
In short: as §1

[38] = target: TAO3 (Homo sapiens (Human), UniProt Q9H2K8)
Sequence of TAO3 (Q9H2K8 whole entry): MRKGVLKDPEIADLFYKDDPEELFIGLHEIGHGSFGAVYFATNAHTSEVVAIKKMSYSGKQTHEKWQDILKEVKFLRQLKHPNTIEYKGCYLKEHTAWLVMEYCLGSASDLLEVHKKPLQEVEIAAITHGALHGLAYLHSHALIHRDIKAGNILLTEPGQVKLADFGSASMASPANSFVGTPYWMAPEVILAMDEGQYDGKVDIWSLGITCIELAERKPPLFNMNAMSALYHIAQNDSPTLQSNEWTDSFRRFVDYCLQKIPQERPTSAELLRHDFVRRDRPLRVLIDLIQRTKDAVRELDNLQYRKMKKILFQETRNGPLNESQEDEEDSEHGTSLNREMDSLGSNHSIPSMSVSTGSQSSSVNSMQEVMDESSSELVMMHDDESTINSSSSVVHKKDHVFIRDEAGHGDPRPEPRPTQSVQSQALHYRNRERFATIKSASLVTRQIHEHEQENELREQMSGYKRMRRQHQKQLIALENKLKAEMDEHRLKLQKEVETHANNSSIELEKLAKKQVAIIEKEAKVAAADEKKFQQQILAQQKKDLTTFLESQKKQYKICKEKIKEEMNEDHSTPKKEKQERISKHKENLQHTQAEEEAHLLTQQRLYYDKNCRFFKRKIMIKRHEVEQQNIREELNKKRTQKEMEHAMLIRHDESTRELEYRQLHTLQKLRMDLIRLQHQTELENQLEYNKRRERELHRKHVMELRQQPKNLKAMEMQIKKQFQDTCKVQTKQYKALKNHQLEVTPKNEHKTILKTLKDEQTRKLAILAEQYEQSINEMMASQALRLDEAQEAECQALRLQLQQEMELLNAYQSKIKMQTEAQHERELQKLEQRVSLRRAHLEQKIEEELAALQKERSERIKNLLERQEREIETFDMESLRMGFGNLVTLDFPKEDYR
In short: as §1

[39] = target: TSSK1 (Homo sapiens (Human), UniProt Q9BXA7)
In short: as §1

[40] = target: ZAP-70 (Homo sapiens (Human), UniProt P43403)
In short: as §1

Sequence of BTK (Q06187 whole entry): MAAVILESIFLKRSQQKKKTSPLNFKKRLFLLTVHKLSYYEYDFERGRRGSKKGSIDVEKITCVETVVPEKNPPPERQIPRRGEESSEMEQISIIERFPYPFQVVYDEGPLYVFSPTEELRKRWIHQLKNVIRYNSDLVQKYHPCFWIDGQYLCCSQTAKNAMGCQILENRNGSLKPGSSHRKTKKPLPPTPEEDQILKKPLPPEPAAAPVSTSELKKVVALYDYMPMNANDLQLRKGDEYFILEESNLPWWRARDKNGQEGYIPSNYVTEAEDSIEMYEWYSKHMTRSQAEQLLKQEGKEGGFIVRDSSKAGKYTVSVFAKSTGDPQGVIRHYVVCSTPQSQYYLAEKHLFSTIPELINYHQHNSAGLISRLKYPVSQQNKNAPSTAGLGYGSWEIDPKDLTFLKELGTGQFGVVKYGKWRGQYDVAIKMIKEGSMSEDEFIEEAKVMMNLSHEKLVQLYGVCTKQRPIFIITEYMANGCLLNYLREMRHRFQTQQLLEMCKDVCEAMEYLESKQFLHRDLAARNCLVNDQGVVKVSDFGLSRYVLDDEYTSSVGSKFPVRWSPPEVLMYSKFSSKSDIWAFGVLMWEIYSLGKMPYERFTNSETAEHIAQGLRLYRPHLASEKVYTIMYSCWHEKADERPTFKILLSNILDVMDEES
Sequence of CAMK2d (Q13557 whole entry): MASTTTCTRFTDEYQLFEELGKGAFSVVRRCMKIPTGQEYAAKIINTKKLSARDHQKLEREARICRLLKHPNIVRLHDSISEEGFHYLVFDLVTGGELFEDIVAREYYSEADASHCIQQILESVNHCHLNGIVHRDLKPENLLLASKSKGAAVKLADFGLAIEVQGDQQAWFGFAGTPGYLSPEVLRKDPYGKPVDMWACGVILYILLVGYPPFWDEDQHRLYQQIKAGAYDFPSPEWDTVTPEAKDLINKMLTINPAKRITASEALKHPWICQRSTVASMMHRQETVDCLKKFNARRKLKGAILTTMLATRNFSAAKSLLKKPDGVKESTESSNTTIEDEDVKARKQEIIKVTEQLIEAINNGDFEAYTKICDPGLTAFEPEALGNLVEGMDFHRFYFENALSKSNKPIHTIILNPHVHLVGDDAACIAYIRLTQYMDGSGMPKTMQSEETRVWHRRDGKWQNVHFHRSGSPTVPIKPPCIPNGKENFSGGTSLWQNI

## COCCN1C[C@@H](NC(=O)Nc2c(C)c(-c3cnc(C)nc3)nn2-c2ccccc2)[C@H](c2cc(F)cc(F)c2)C1 [Example 14, 1-((3S,4R)-4-(3,5-difluorophenyl)-1-(2-methoxyethyl)pyrrolidin-3-yl)-3-(4-methyl-3-(2-methylpyrimidin-5-yl)-1-phenyl-1H-pyrazol-5-yl)urea]
[1]
  Avg POC: 106 POC
[2]
  Avg POC: 97.5 POC
[3]
  Avg POC: 105.5 POC
[4]
  Avg POC: 99 POC
[5]
  Avg POC: 97.5 POC
[6]
  Avg POC: 104 POC
[7]
  Avg POC: 104.5 POC
[8]
  Avg POC: 114.5 POC
[9]
  Avg POC: 138.5 POC
[10]
  Avg POC: 103 POC
[11]
  Avg POC: 110 POC
[12]
  Avg POC: 100.5 POC
[13]
  Avg POC: 80.5 POC
[14]
  Avg POC: 91 POC
[15]
  Avg POC: 101.5 POC
[16]
  Avg POC: 96 POC
[17]
  Avg POC: 79 POC
[18]
  Avg POC: 99 POC
[19]
  Avg POC: 101.5 POC
[20]
  Avg POC: 111.5 POC
[21]
  Avg POC: 98.5 POC
[22]
  Avg POC: 105.5 POC
[23]
  Avg POC: 108.5 POC
[24]
  Avg POC: 107 POC
[25]
  Avg POC: 102 POC
[26]
  Avg POC: 100.5 POC
[27]
  Avg POC: 114.5 POC
[28]
  Avg POC: 93 POC
[29]
  Avg POC: 114.5 POC
[30]
  Avg POC: 108 POC
[31]
  Avg POC: 108.5 POC
[32]
  Avg POC: 88 POC
[33]
  Avg POC: 94 POC
[34]
  Avg POC: 84 POC
[35]
  Avg POC: 111.5 POC
[36]
  Avg POC: 99 POC
[37]
  Avg POC: 96.5 POC
[38]
  Avg POC: 100.5 POC
[39]
  Avg POC: 104.5 POC
[40]
  Avg POC: 101 POC

## COCCN1C[C@@H](NC(=O)Nc2c(C)c(-c3ccnc(C)c3)nn2-c2ccccc2)[C@H](c2ccc(F)c(F)c2)C1 [Example 2, 1-((3S,4R)-4-(3,4-difluorophenyl)-1-(2-methoxyethyl)pyrrolidin-3-yl)-3-(4-methyl-3-(2-methylpyridin-4-yl)-1-phenyl-1H-pyrazol-5-yl)urea]
[1]
  Avg POC: 116 POC
[2]
  Avg POC: 109 POC
[3]
  Avg POC: 91.5 POC
[4]
  Avg POC: 104 POC
[5]
  Avg POC: 88 POC
[6]
  Avg POC: 104 POC
[7]
  Avg POC: 114.5 POC
[8]
  Avg POC: 105 POC
[9]
  Avg POC: 105.5 POC
[10]
  Avg POC: 91.5 POC
[11]
  Avg POC: 105.5 POC
[12]
  Avg POC: 105 POC
[13]
  Avg POC: 108.5 POC
[14]
  Avg POC: 103.5 POC
[15]
  Avg POC: 94 POC
[16]
  Avg POC: 71.5 POC
[17]
  Avg POC: 63 POC
[18]
  Avg POC: 87 POC
[19]
  Avg POC: 101.5 POC
[20]
  Avg POC: 110 POC
[21]
  Avg POC: 105 POC
[22]
  Avg POC: 101 POC
[23]
  Avg POC: 111.5 POC
[24]
  Avg POC: 103 POC
[25]
  Avg POC: 106 POC
[26]
  Avg POC: 102.5 POC
[27]
  Avg POC: 110.5 POC
[28]
  Avg POC: 96 POC
[29]
  Avg POC: 103.5 POC
[30]
  Avg POC: 101.5 POC
[31]
  Avg POC: 101 POC
[32]
  Avg POC: 90 POC
[33]
  Avg POC: 110.5 POC
[34]
  Avg POC: 106.5 POC
[35]
  Avg POC: 111 POC
[36]
  Avg POC: 98.5 POC
[37]
  Avg POC: 102.5 POC
[38]
  Avg POC: 97.5 POC
[39]
  Avg POC: 105 POC
[40]
  Avg POC: 93 POC

— patent publication US9896435B2, “N-pyrrolidinyl,N′-pyrazolyl-urea, thiourea, guanidine and cyanoguanidine compounds as TrkA kinase inhibitors” (Array BioPharma Inc., priority 2012, dated 2018)
